Experimental data reported in US8124610B2, “Sodium channel inhibitors” (Icagen Inc., priority 2007, dated 2012).
Where two headings read alike, the source gives them in different places.

Legend:
hSCN3A = biological target: T1, hSCN3A (Homo sapiens, UniProt Q9NY46); assay: Whole-cell patch-clamp electrophysiology (conventional or PatchXpress), HEK cells expressing hSCN3A, estimated IC-50; assay type: cell-based; conditions: read-out: SCN3A EIC-50
T1 construct: expressed in transfected cells
Protocol: Human Embryonic Kidney (HEK) cells were transfected with hSCN3A or hSCN9A constructs using lipofectamine reagent (Invitrogen), using standard techniques. Cells stably expressing the hSCN3A or hSCN9A constructs were identified by their resistance to G-418 (400 μg/ml). Clones were screened for expression using the whole-cell voltage-clamp technique. HEK cells stably transfected with hSCN3A or hSCN9A were maintained in DMEM medium supplemented with 10% heat-inactivated fetal bovine serum and 400 μg/ml G418 sulfate in an incubator at 37° C. with a humidified atmosphere of 10% CO2. For HTS, cells were harvested from flasks by trypsinization and replated in an appropriate multi-well plate (typically 96 or 384 wells/plate) such that confluence would be achieved within 24 hours of plating. For electrophysiological studies, cells were removed from the culture flask by brief trypsinization and replated at low density onto glass cover slips. Cells were typically used for electrophysiological experiments within 24 to 72 h after plating. Cover slips containing HEK cells expressing hSCN3A or hSCN9A were placed in a bath on the stage of an inverted microscope and perfused (approximately 1 ml/min) with extracellular solution of the following composition: 138 mM NaCl, 2 mM CaCl2, 5.4 mM KCl, 1 mM MgCl2, 10 mM glucose, and 10 mM HEPES, pH 7.4, with NaOH. […] All recordings were made at room temperature (22-24° C.) using AXOPATCH 200B amplifiers and PCLAMP software (Axon Instruments, Burlingame, Calif.) or PatchXpress 7000 hardware and associated software (Axon Instruments, Burlingame, Calif.). hSCN3A or hSCN9A currents in HEK cells were measured using the whole-cell configuration of the patch-clamp technique (Hamill et al., 1981). […] As a result, voltage errors were negligible and no correction was applied. Current records were acquired at 20 to 50 KHz and filtered at 5 to 10 KHz. HEK cells stably transfected with hSCN3A or hSCN9A were viewed under Hoffman contrast optics and placed in front of an array of flow pipes emitting either control or compound-containing extracellular solutions. All compounds were dissolved in dimethyl sulfoxide to make 10 mM stock solutions, which were then diluted into extracellular solution to attain the final concentrations desired. […] The voltage-dependence of inactivation was determined by applying a series of depolarizing prepulses (8 sec long in 10 mV increments) from a negative holding potential. The voltage was then immediately stepped to 0 mV to assess the magnitude of the sodium current. Currents elicited at 0 mV were plotted as a function of prepulse potential to allow estimation of the voltage midpoint of inactivation (V1/2). Cells were then voltage clamped at the empirically determined V1/2. Compounds were tested for their ability to inhibit hSCN3A or hSCN9A sodium channels by activating the channel with a 20 msec voltage step to 0 mV following an 8 second conditioning prepulse to the empirically determined V1-2 (Table B). Compound effect (% inhibition) was determined by difference in current amplitude before and after application of test compounds. […] In some cases electrophysiological assays were conducted with PatchXpress 7000 hardware and associated software (Molecular Devices Corp) (Table B). All assay buffers and solutions were identical to those used in conventional whole-cell voltage clamp experiments described above. hSCN3A or hSCN9A containing cells were grown as above to 50%-80% confluency and harvested by trypsinization. Trypsinized cells were washed and resuspended in extracellular buffer at a concentration of 1×10^6 cells/ml. The onboard liquid handling facility of the PatchXpress was used for dispensing cells and application of test compounds. Determination of the voltage midpoint of inactivation was as described for conventional whole-cell recordings. Cells were then voltage-clamped to the empirically determined V1/2 and current was activated by a 20 msec voltage step to 0 mV.

hSCN9A = biological target: T2, hSCN9A (Homo sapiens, UniProt Q15858); assay: Whole-cell patch-clamp electrophysiology (conventional or PatchXpress), HEK cells expressing hSCN9A, estimated IC-50; assay type: cell-based; conditions: read-out: SCN9A EIC-50
T2 construct: expressed in transfected cells
T2 sequence (Q15858 whole entry): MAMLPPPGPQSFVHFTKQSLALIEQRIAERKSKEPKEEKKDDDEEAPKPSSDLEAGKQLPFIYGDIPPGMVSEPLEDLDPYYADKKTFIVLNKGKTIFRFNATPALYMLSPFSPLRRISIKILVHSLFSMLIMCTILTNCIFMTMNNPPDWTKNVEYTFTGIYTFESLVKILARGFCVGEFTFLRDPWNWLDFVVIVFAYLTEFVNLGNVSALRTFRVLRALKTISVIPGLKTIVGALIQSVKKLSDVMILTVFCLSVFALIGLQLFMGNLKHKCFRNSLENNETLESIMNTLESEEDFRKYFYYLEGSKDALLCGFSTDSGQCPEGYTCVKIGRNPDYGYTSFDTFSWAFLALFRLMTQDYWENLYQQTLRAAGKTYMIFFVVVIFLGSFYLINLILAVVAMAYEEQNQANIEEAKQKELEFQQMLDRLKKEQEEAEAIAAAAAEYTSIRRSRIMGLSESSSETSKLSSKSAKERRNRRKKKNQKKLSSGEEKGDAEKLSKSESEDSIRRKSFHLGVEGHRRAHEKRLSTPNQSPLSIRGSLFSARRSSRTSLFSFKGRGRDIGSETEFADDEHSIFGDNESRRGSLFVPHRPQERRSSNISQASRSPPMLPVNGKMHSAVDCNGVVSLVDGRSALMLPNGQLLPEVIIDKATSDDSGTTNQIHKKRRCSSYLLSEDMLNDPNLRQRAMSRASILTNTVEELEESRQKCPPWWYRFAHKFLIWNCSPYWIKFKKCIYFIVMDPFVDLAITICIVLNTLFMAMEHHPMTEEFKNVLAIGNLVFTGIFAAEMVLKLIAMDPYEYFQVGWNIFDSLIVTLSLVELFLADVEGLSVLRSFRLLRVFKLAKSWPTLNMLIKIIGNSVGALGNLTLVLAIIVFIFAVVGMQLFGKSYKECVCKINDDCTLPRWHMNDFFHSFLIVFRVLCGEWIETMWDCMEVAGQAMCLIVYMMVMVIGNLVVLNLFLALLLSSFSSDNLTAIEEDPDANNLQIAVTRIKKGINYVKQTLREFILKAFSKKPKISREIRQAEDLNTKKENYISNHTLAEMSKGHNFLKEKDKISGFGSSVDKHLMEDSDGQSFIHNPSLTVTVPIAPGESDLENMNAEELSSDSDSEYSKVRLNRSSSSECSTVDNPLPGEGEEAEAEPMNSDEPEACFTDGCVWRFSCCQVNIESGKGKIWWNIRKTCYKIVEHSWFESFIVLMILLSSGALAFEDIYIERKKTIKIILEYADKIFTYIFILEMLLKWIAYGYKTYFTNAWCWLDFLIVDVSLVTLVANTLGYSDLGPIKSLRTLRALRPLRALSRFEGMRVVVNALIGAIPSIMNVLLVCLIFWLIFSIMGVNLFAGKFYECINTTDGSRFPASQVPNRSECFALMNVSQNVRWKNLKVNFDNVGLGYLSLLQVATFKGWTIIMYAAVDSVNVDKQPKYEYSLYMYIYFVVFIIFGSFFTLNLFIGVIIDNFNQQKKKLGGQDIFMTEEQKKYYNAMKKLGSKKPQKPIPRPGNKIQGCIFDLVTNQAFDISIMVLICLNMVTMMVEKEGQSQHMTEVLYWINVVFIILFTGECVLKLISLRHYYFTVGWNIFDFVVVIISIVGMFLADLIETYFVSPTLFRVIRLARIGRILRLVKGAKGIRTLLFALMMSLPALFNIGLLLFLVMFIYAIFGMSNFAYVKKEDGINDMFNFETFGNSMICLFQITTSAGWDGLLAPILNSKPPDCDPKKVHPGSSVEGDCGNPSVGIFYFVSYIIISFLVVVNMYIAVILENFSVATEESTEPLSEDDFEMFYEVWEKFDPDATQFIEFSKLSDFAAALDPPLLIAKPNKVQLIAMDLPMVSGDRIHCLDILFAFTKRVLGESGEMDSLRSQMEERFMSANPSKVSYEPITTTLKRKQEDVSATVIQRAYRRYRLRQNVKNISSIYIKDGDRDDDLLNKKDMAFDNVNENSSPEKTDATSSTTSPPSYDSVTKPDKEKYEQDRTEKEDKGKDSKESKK
Outline: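 Stably transfected HEK cells recorded by whole-cell voltage clamp (manual or PatchXpress) at 22–24 °C in pH 7.4 HEPES-buffered extracellular solution. Cells held at the empirically determined inactivation V1/2 after an 8 s prepulse, then stepped to 0 mV for 20 ms; % inhibition from current amplitude before vs after compound.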

[1] = Table V, estimated IC-50 from single point electrophysiology, cells clamped at V1/2
[2] = commercial compounds (second Table VI), estimated IC-50 from single point electrophysiology
[3] = estimated IC-50, HEK cells expressing hSCN3A, class symbols or bounds
[4] = estimated IC-50, HEK cells expressing hSCN9A, class symbols or bounds

T1 sequence (Q9NY46 whole entry): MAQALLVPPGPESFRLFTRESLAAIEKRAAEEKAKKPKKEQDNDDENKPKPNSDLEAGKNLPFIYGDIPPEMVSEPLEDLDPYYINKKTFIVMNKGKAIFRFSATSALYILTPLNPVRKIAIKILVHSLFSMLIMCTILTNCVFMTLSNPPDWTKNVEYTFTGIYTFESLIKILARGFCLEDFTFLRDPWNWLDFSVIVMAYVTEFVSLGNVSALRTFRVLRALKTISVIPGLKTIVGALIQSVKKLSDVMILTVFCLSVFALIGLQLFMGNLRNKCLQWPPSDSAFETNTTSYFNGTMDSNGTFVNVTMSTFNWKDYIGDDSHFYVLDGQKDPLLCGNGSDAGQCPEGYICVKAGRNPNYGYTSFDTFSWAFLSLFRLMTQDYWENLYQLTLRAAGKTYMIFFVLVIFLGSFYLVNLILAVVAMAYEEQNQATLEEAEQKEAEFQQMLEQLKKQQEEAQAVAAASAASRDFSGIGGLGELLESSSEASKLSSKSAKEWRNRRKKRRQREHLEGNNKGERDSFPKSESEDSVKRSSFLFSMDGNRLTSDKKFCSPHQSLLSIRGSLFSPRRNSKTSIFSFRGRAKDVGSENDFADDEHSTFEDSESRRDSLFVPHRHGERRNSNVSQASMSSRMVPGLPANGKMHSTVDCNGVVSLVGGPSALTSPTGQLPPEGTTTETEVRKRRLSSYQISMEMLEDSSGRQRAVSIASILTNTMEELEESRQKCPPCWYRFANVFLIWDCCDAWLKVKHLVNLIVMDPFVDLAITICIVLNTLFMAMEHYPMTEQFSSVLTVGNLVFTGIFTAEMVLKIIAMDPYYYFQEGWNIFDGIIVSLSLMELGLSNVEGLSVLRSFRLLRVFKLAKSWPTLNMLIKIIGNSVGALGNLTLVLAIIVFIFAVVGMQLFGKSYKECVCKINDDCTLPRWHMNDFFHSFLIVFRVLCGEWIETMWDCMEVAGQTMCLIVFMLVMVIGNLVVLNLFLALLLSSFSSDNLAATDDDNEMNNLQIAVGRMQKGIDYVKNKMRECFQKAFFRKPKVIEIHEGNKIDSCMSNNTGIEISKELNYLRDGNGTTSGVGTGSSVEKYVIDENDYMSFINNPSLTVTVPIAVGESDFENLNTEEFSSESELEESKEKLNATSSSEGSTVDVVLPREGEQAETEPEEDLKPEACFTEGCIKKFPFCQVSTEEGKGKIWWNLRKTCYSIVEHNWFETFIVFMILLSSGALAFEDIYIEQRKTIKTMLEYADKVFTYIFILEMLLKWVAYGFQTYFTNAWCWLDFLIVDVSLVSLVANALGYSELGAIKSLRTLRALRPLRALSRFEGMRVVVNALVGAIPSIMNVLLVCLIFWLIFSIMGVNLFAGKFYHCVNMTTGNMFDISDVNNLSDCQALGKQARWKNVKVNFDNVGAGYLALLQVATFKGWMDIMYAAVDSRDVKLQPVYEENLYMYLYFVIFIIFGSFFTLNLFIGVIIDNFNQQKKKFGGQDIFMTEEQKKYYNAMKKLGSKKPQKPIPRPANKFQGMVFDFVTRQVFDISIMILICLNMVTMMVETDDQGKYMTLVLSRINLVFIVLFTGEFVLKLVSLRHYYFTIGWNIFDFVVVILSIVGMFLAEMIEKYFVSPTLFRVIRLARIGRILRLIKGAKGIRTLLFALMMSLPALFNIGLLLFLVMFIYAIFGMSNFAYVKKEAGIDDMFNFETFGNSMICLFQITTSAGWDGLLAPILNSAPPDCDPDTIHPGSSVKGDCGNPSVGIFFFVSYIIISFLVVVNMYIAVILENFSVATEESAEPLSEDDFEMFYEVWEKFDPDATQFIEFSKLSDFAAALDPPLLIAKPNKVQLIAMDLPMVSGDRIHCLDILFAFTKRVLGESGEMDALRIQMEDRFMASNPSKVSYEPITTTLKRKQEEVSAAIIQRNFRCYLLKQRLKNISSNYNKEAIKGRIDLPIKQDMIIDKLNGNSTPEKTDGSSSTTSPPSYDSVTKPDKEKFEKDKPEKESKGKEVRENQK

Row | SMILES | IC50 (hSCN3A; [1]) [nM] | IC50 (hSCN9A; [1]) [nM] | also measured
1 | Cn1nc(Cc2ccc(Cl)cc2)cc1Nc1ccc(S(=O)(=O)Nc2nccs2)cc1 [Compound 21, 4-(3-(4-Chlorobenzyl)-1-methyl-1H-pyrazol-5-ylamino)-N-(thiazol-2-yl)benzenesulfonamide] | < 2000 | < 2000 | 
2 | CC(C)(C)c1cc(Nc2ccc(S(=O)(=O)Nc3nccs3)cc2)n(C(C)(C)C)n1 [Compound 22, 4-(1,3-di-tert-butyl-1H-pyrazol-5-ylamino)-N-(thiazol-2-yl)benzenesulfonamide] | 2000 to 10000 | 2000 to 10000 | 
3 | CC(C)(C)c1cc(Nc2ccc(S(=O)(=O)Nc3nccs3)cc2)[nH]n1 [Compound 23, 4-(3-tert-butyl-1H-pyrazol-5-ylamino)-N-(thiazol-2-yl)benzenesulfonamide] | 2000 to 10000 | 2000 to 10000 | 
4 | Nc1nc(Nc2ccc(S(=O)(=O)Nc3nccs3)cc2)nn1Cc1ccc(Cl)cc1 [Compound 24, 4-(5-amino-1-(4-chlorobenzyl)-1H-1,2,4-triazol-3-ylamino)-N-(thiazol-2-yl)benzenesulfonamide] | 2000 to 10000 | > 10000 | 
5 | N#Cc1cnn(-c2ccc(F)c(Cl)c2)c1Nc1ccc(S(=O)(=O)Nc2nccs2)cc1 [Compound 25, 4-(1-(3-chloro-4-fluorophenyl)-4-cyano-1H-pyrazol-5-ylamino)-N-(thiazol-2-yl)benzenesulfonamide] | < 2000 | > 10000 | 
6 | CC(C)(C)n1nc(Cc2ccc(Cl)cc2)cc1Nc1ccc(S(=O)(=O)Nc2nccs2)c(F)c1 [Compound 26, 4-(1-tert-butyl-3-(4-chlorobenzyl)-1H-pyrazol-5-ylamino)-2-fluoro-N-(thiazol-2-yl)benzenesulfonamide] | < 2000 | < 2000 | 
7 | O=S(=O)(Nc1nccs1)c1ccc(Nc2nnc(Cc3ccc(C(F)(F)F)cc3)s2)cc1 [Compound 27, N-(thiazol-2-yl)-4-(5-(4-(trifluoromethyl)benzyl)-1,3,4-thiadiazol-2-ylamino)benzenesulfonamide] | < 2000 | > 10000 | 
8 | O=S(=O)(Nc1nccs1)c1ccc(Nc2nnc(Cc3ccc(C(F)(F)F)cc3)o2)cc1 [Compound 28, N-(thiazol-2-yl)-4-(5-(4-(trifluoromethyl)benzyl)-1,3,4-oxadiazol-2-ylamino)benzenesulfonamide] | < 2000 | > 10000 | 
9 | Cn1nc(CC2CCCCC2)cc1Nc1ccc(S(=O)(=O)Nc2nccs2)cc1 [Compound 29, 4-(3-(cyclohexylmethyl)-1-methyl-1H-pyrazol-5-ylamino)-N-(thiazol-2-yl)benzenesulfonamide] | < 2000 | < 2000 | 
10 | Cc1cc(Nc2ccc(S(=O)(=O)Nc3nccs3)c(F)c2)n(-c2ccccc2)n1 [Compound 30, 2-fluoro-4-(3-methyl-1-phenyl-1H-pyrazol-5-ylamino)-N-(thiazol-2-yl)benzenesulfonamide] | < 2000 | < 2000 | 
11 | O=S(=O)(Nc1nccs1)c1ccc(Nc2ccn(Cc3ccc(Cl)cc3)n2)cc1F [Compound 31, 4-(1-(4-chlorobenzyl)-1H-pyrazol-3-ylamino)-2-fluoro-N-(thiazol-2-yl)benzenesulfonamide] | < 2000 | < 2000 | 
12 | O=S(=O)(Nc1nccs1)c1ccc(Nc2cc(C3CC3)nn2-c2ccccc2)cc1F [Compound 32, 4-(3-cyclopropyl-1-phenyl-1H-pyrazol-5-ylamino)-2-fluoro-N-(thiazol-2-yl)benzenesulfonamide] | < 2000 | < 2000 | 
13 | O=S(=O)(Nc1nccs1)c1ccc(Nc2cnn(Cc3ccc(Cl)cc3)c2)cc1F [Compound 33, 4-(1-(4-chlorobenzyl)-1H-pyrazol-4-ylamino)-2-fluoro-N-(thiazol-2-yl)benzenesulfonamide] | < 2000 | < 2000 | 
14 | Cn1nc(CC(C)(C)C)cc1Nc1ccc(S(=O)(=O)Nc2nccs2)c(F)c1 [Compound 34, 2-fluoro-4-(1-methyl-3-neopentyl-1H-pyrazol-5-ylamino)-N-(thiazol-2-yl)benzenesulfonamide] | < 2000 | < 2000 | 
15 | Cc1cc(Nc2ccc(S(=O)(=O)Nc3nccs3)cc2F)n(-c2ccccc2)n1 [Compound 35, 3-fluoro-4-(3-methyl-1-phenyl-1H-pyrazol-5-ylamino)-N-(thiazol-2-yl)benzenesulfonamide] | < 2000 | < 2000 | 
16 | O=S(=O)(Nc1nccs1)c1ccc(Nc2cc(C3CC3)nn2-c2ccccc2)c(F)c1 [Compound 36, 4-(3-cyclopropyl-1-phenyl-1H-pyrazol-5-ylamino)-3-fluoro-N-(thiazol-2-yl)benzenesulfonamide] | < 2000 | < 2000 | 
17 | O=S(=O)(Nc1nccs1)c1ccc(Nc2ccccc2-c2ccccc2)cc1F [Compound 37, 4-(Biphenyl-2-ylamino)-2-fluoro-N-thiazol-2-yl-benzenesulfonamide] | < 2000 | < 2000 | 
18 | CCOC(=O)C1(C)C=C(Nc2ccc(S(=O)(=O)Nc3nccs3)cc2)C(=O)N1c1ccccc1 (centres unmarked) [Compound 38, ethyl 2-methyl-5-oxo-1-phenyl-4-(4-(N-thiazol-2-ylsulfamoyl)phenylamino)-2,5-dihydro-1H-pyrrole-2-carboxylate, reference compound] |  |  | IC50 (hSCN3A; [2]): > 1000 nM; IC50 (hSCN9A; [2]): > 3000 nM
19 | Cc1nnc(Nc2ccc(S(=O)(=O)Nc3nccs3)cc2)c2ccccc12 [Compound 39, 4-(4-methylphthalazin-1-ylamino)-N-(thiazol-2-yl)benzenesulfonamide, reference compound] |  |  | IC50 (hSCN3A; [2]): > 1000 nM; IC50 (hSCN9A; [2]): > 3000 nM
20 | O=S(=O)(Nc1nccs1)c1ccc(Nc2nnc(-c3ccc(Cl)cc3)c3ccccc23)cc1 [Compound 40, 4-(4-(4-chlorophenyl)phthalazin-1-ylamino)-N-(thiazol-2-yl)benzenesulfonamide, reference compound] |  |  | IC50 (hSCN3A; [2]): 1320 nM; IC50 (hSCN9A; [2]): 3490 nM
21 | Cc1ccc(-c2nnc(Nc3ccc(S(=O)(=O)Nc4nccs4)cc3)c3ccccc23)cc1 [Compound 41, N-(thiazol-2-yl)-4-(4-p-tolylphthalazin-1-ylamino)benzenesulfonamide, reference compound] |  |  | IC50 (hSCN3A; [2]): 1610 nM; IC50 (hSCN9A; [2]): > 3000 nM
22 | O=S(=O)(Nc1nccs1)c1ccc(Nc2nnc(-c3ccccc3)c3ccccc23)cc1 [Compound 42, 4-(4-phenylphthalazin-1-ylamino)-N-(thiazol-2-yl)benzenesulfonamide, reference compound] |  |  | IC50 (hSCN3A; [2]): 2030 nM; IC50 (hSCN9A; [2]): > 3000 nM
23 | O=S(=O)(Nc1nccs1)c1ccc(Nc2nc(-c3ccccc3)cs2)cc1 [Compound 43, 4-(4-phenylthiazol-2-ylamino)-N-(thiazol-2-yl)benzenesulfonamide] |  |  | IC50 (hSCN3A; [3]): > 1000 nM; IC50 (hSCN9A; [4]): 2000 to 10000 nM
24 | O=S(=O)(Nc1nccs1)c1ccc(Nc2ncccn2)cc1 [Compound 44, 4-(pyrimidin-2-ylamino)-N-(thiazol-2-yl)benzenesulfonamide] |  |  | IC50 (hSCN3A; [3]): > 1000 nM; IC50 (hSCN9A; [4]): > 3000 nM
25 | O=S(=O)(Nc1nccs1)c1ccc(Nc2nccc(OCc3ccccc3)n2)cc1 [Compound 45, 4-(4-(benzyloxy)pyrimidin-2-ylamino)-N-(thiazol-2-yl)benzenesulfonamide] |  |  | IC50 (hSCN3A; [3]): < 2000 nM; IC50 (hSCN9A; [4]): > 10000 nM
